In US20240343706A1, “PIPERIDINE-2,6-DIONE DERIVATIVES WHICH BIND TO CEREBLON, AND METHODS OF USE THEREOF” (Captor Therapeutics S.A., priority 2019, published 2024):

How the values were obtained:
[1] = biological target: CRBN-DDB1 protein complex (Homo sapiens, UniProt Q96SW2); assay: Fluorescence polarization (FP) assay, displacement of Cy5-labelled thalidomide; settings: 25 nM CRBN-DDB1, 5 nM Cy5-labelled thalidomide, read-out: CRBN binding Ki
How it was run: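 CRBN-DDB1 mixed with Cy5-thalidomide tracer and test compound, then incubated 60 min at room temperature (20-25 °C) before fluorescence polarization read-out. Ki derived from tracer displacement across a range of compound concentrations.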

IKZF1 = IKZF1 degradation assay, H929 cell line (western blot densitometry); assay type: cell-based; settings: H929 cells, 6 h
Text: After primary and secondary Ab staining, the membranes were washed and signals developed. The densitometry analysis was implemented to obtain the numeric values used later in the protein level evaluation process.

[2] = biological target: BRD4-compound-CRBN/DDB1 ternary complex (Homo sapiens, UniProt O60885+Q96SW2); assay: BRD4-compound-CRBN/DDB1 ternary complex formation, AlphaLISA homogenous assay; assay type: biochemical; settings: for EC50: 100 nM His-CRBN/DDB1, 20 nM BRD4, N = 3, read-out: TF50 (compound concentration which mediate the half of maximal response observed for Ternary Complex); for Normalized AUC to dBET1: area under curve 1.63-2500 nM
Protocol: Biotinylated BRD4 and His-CRBN/DDB1 complex preparations were centrifugated to remove large aggregates (18000 rcf, 4° C., 5 min). Supernatant was collected and protein concentration was determined spectrophotometrically. The AlphaLISA bead-Protein mixtures were prepared: CRBN-acceptor bead (40 μg/ml Anti-6×His beads, 200 nM His-CRBN/DDB1 in PBS pH 7.4 supplemented with 0.1% Tween-20) and BRD4-donor bead (40 μg/ml Streptavidin beads, 40 nM BRD4 in PBS pH 7.4 supplemented with 0.1% Tween-20 and 2 mM DTT). Bead mixes were incubated in dark for 30 minutes at room temperature.
CRBN-acceptor bead mix and BRD4-donor bead mix were combined and dispensed into plate with compounds and DMSO only (10 μl of master mix per well). Final sample composition: 20 μg/ml Anti-6×His beads, 20 μg/ml Stretavidin beads, 100 nM His-CRBN/DDB1, 20 nM BRD4, 2% DMSO, 0.1% Tween-20, 1 mM DTT in PBS pH 7.4, +/− compound. Plate was sealed and covered to protect against light. Sample was mixed using Vibroturbulator. Subsequently, solutions in the plate was centrifugated and incubated in the dark for 30 minutes at 25° C. The plate seal was removed and sample luminescence was determined using Perkin Elmer Enspire plate reader. Readouts were assigned to certain compound concentration. Solutions without compound were utilized to determine background response (an average value) which subsequently was subtracted from raw data collected for compound mixtures.

IKZF3 = IKZF3 degradation assay, H929 cell line (western blot densitometry); assay type: cell-based; settings: H929 cells, 6 h
BRD4 = BRD4 (Homo sapiens, UniProt O60885); assay: BRD4 degradation assay, H929 cell line (Simple Western); settings: H929 cells, 6 h
[3] = biological target: T1, IKZF1-compound-CRBN/DDB1 ternary complex (Homo sapiens, UniProt Q96SW2); assay: IKZF1-compound-CRBN/DDB1 ternary complex formation, AlphaLISA homogenous assay; assay type: biochemical; settings: AlphaLISA, 0.1, 1 and 10 μM, normalized to Lenalidomide response
T1 construct: Strep-tagged Ikaros (IKZF1 ZF2)
Protocol: Strep-tagged Ikaros (IKZF1 ZF2) and His-CRBN/DDB1 complex preparations were centrifugated to remove large aggregates (18000 rcf, 4° C., 5 min). Supernatant was collected and protein concentration was determined spectrophotometrically. The AlphaLISA bead-Protein mixtures were prepared: CRBN-acceptor bead (40 μg/ml Anti-6×His beads, 200 nM His-CRBN/DDB1 in PBS pH 7.4 supplemented with 0.1% Tween-20) Ikaros-donor bead mix (40 μg/ml Strep-Tactin beads, 800 nM IKZF1 in PBS pH 7.4 supplemented with 0.1% Tween-20 and 2 mM DTT). Bead mixes were incubated in dark for 30 minutes at room temperature. Tested compounds were dispensed into small volume AlphaPlate (Perkin Elmer) using Echo 555 liquid handler. CRBN-acceptor bead mix and Ikaros-donor bead mix were combined and dispensed into plate with compounds and DMSO only (10 μl of master mix per well). Final sample composition: 20 μg/ml Anti-6×His beads, 20 μg/ml Strep-Tactin beads, 100 nM His-CRBN/DDB1, 400 nM IKZF1, 2% DMSO, 0.1% Tween-20, 1 mM DTT in PBS pH 7.4, +/− compound. Plate was sealed and covered to protect against light. Sample was mixed using Vibroturbulator. […] The plate seal was removed and sample luminescence was determined using Perkin Elmer Enspire plate reader. Readouts were assigned to certain compound concentration. […] The average and standard deviation (SD) were calculated for each compound concentration point. […]

SMILES	Ki [1] [µM]	% of IKZF1 α protein reduction based on densitometry values (IKZF1; 0.1 μM)	% of IKZF1 α protein reduction based on densitometry values (IKZF1; 1 μM)	% of IKZF1 α protein reduction based on densitometry values (IKZF1; 10 μM)	EC50 [2] [µM]	Normalized AUC to dBET1 [2]	% of IKZF3 protein reduction based on densitometry values, IKZF3 Band I (IKZF3; 0.1 μM)	% of IKZF3 protein reduction based on densitometry values, IKZF3 Band II (IKZF3; 0.1 μM)	% of IKZF3 protein reduction based on densitometry values, IKZF3 Band I (IKZF3; 1 μM)	% of IKZF3 protein reduction based on densitometry values, IKZF3 Band II (IKZF3; 1 μM)	% of IKZF3 protein reduction based on densitometry values, IKZF3 Band I (IKZF3; 10 μM)	% of IKZF3 protein reduction based on densitometry values, IKZF3 Band II (IKZF3; 10 μM)	BRD4 degradation (in words) (BRD4)	IKZF1-compound-CRBN/DDB1 complex formation (in words) [3]
Cc1sc2c(c1C)C(c1ccc(Cl)cc1)=N[C@@H](CC(=O)NCCCCCCCCNC(=O)CCc1nc3c(C(=O)NC4CCC(=O)NC4=O)cccc3[nH]1)c1nnc(C)n1-2 (stereo partly drawn) [Compound 64, 2-(3-((8-(2-((S)-4-(4-chlorophenyl)-2,3,9-trimethyl-6H-thieno[3,2-f][1,2,4]triazolo[4,3-a][1,4]diazepin-6-yl)acetamido)octyl)amino)-3-oxopropyl)-N-(2,6-dioxopiperidin-3-yl)-1H-benzo[d]imidazole-7-carboxamide]	1 to 10	≤25% (≤25% for 0-25% of IKZF1 protein reduction)	≤25% (≤25% for 0-25% of IKZF1 protein reduction)	≤25% (≤25% for 0-25% of IKZF1 protein reduction)	0.0705	1.45	≤25% (≤25% for 0-25% of IKZF3 protein reduction)	≤25% (≤25% for 0-25% of IKZF3 protein reduction)	>25% (>25% for 26-74% of IKZF3 protein reduction)	≤25% (≤25% for 0-25% of IKZF3 protein reduction)	≤25% (≤25% for 0-25% of IKZF3 protein reduction)	≤25% (≤25% for 0-25% of IKZF3 protein reduction)	can degrade BRD4	
Cc1sc2c(c1C)C(c1ccc(Cl)cc1)=N[C@@H](CC(=O)NCCCCCCCCNC(=O)Cn1c(C)nc3c(C(=O)NC4CCC(=O)NC4=O)cccc31)c1nnc(C)n1-2 (stereo partly drawn) [Compound 65, 1-(2-((8-(2-((S)-4-(4-chlorophenyl)-2,3,9-trimethyl-6H-thieno[3,2-f][1,2,4]triazolo[4,3-a][1,4]diazepin-6-yl)acetamido)octyl)amino)-2-oxoethyl)-N-(2,6-dioxopiperidin-3-yl)-2-methyl-1H-benzo[d]imidazole-4-carboxamide]	< 1				0.0388	1.22								do not promote IKZF1-compound-CRBN/DDB1 complex formation
Cc1nc2c(C(=O)NC3CCC(=O)NC3=O)cc(OCC(=O)NCCCCCCCCNC(=O)C[C@@H]3N=C(c4ccc(Cl)cc4)c4c(sc(C)c4C)-n4c(C)nnc43)cc2[nH]1 (stereo partly drawn) [Compound 66, 5-(2-((8-(2-((S)-4-(4-chlorophenyl)-2,3,9-trimethyl-6H-thieno[3,2-f][1,2,4]triazolo[4,3-a][1,4]diazepin-6-yl)acetamido)octyl)amino)-2-oxoethoxy)-N-(2,6-dioxopiperidin-3-yl)-2-methyl-1H-benzo[d]imidazole-7-carboxamide]	< 1	≤25% (≤25% for 0-25% of IKZF1 protein reduction)	≤25% (≤25% for 0-25% of IKZF1 protein reduction)	≤25% (≤25% for 0-25% of IKZF1 protein reduction)	0.0421	1.53	≤25% (≤25% for 0-25% of IKZF3 protein reduction)	≤25% (≤25% for 0-25% of IKZF3 protein reduction)	≤25% (≤25% for 0-25% of IKZF3 protein reduction)	≤25% (≤25% for 0-25% of IKZF3 protein reduction)	≤25% (≤25% for 0-25% of IKZF3 protein reduction)	≤25% (≤25% for 0-25% of IKZF3 protein reduction)	can degrade BRD4	
